Data: ChEMBL document CHEMBL2177089, “Novel tetrahydropyrido[1,2-a]isoindolone derivatives (valmerins): potent cyclin-dependent kinase/glycogen synthase kinase 3 inhibitors with antiproliferative activities and antitumor effects in human tumor xenografts” (J Med Chem, 2012)
Active and inactive are the calls of the source. The calls are words filed in the database; no cut-off is given here.

Legend:
[1] = target: Glycogen synthase kinase-3 (Sus scrofa, UniProt B2LUN4+I6LNT8); assay: Inhibition of porcine brain GSK-3alpha/beta using YRRAAVPPSPSLSRHSSPHQpSEDEEE as substrate and [gamma-33P]-ATP after 30 mins by scintillation counting
[2] = target: Dual specificity tyrosine-phosphorylation-regulated kinase 1A (Homo sapiens, UniProt Q13627); assay: Inhibition of human recombinant GST-fused DYRK1A expressed in Escherichia coli using KKISGRLSPIMTEQ as substrate and [gamma-33P]-ATP after 30 mins by scintillation counting
[3] = target: Cyclin-dependent kinase 5/CDK5 activator 1 (Homo sapiens, UniProt Q00535); assay: Inhibition of human recombinant CDK5/p25 using histone H1 as substrate and [gamma-33P]-ATP after 30 mins by scintillation counting; assay type: protein-complex assay
[4] = Inhibition of porcine brain CK1delta/epsilon using RRKHAAIGpSAYSITA as substrate and [gamma-33P]-ATP after 30 mins by scintillation counting; design: species or system Sus scrofa
HCT-116 [5] = assay: cells; conditions: Homo sapiens, HCT-116, 48 h
Description: Cytotoxicity against human HCT116 cells after 48 hrs

NCI-H727 [6] = assay: cells; conditions: Homo sapiens, NCI-H727, 48 h
Description: Cytotoxicity against human NCI-H727 cells after 48 hrs

Caco-2 [7] = assay: cells; conditions: Homo sapiens, Caco-2, 48 h
Description: Cytotoxicity against human Caco2 cells after 48 hrs

[8] = Cytotoxicity against human skin fibroblasts cells after 48 hrs; conditions: Fibroblast
Huh-7 [9] = assay: cells; conditions: Homo sapiens, Huh-7, 48 h
Description: Cytotoxicity against human HuH7 cells after 48 hrs

MDA-MB-231 [10] = assay: cells; conditions: Homo sapiens, MDA-MB-231, 48 h
Description: Cytotoxicity against human MDA-MB-231 cells after 48 hrs

PC-3 [11] = assay: cells; conditions: Homo sapiens, PC-3, 48 h
Description: Cytotoxicity against human PC3 cells after 48 hrs

MDA-MB-231 [12] = assay: Cell cycle arrest in human MDA-MB-231 cells assessed as accumulation at G1 phase at 1 uM after 24 hrs; assay type: functional, cell-based
HCT-116 [13] = assay: Cell cycle arrest in human HCT116 cells assessed as accumulation at G1 phase at 1 uM after 24 hrs; assay type: functional, cell-based
NCI-H727 [14] = assay: Cell cycle arrest in human NCI-H727 cells assessed as accumulation at G1 phase at 1 uM after 24 hrs; assay type: functional, cell-based
Huh-7 [15] = assay: Cell cycle arrest in human HuH7 cells assessed as accumulation at G1 phase at 1 uM after 24 hrs; assay type: functional, cell-based
HCT-116 [16] = assay: Induction of apoptosis in human HCT116 cells assessed as activation of caspase-3 at 1 uM after 24 hrs; assay type: functional, cell-based
Caco-2 [17] = assay: Cell cycle arrest in human Caco2 cells assessed as accumulation at G1 phase at 1 uM after 24 hrs; assay type: functional, cell-based
PC-3 [18] = assay: Cell cycle arrest in human PC3 cells assessed as accumulation at G1 phase at 1 uM after 24 hrs; assay type: functional, cell-based
Mus musculus [19] = assay: Toxicity in NMRI mouse assessed as macroscopic examination of organs at 1 to 10 mg/kg, ip qd for 2 weeks; assay type: organism-based; design: dose 1-10 mg/kg, route intraperitoneal; conditions: in vivo, 336 h
MDA-MB-231 [20] = assay: Cell cycle arrest in human MDA-MB-231 cells assessed as accumulation at G1 phase at 0.6 uM after 24 hrs; assay type: functional, cell-based
HCT-116 [21] = assay: Antitumor activity against human HCT116 cells xenografted in nude NMRI mouse assessed as tumor reduction at 10 mg/kg, ip administered 3 times in a week for 4 weeks by whole-body bioluminescent imaging; assay type: functional; design: scale not given: the % may be the effect or the level left; conditions: route intraperitoneal
Mus musculus [22] = assay: Toxicity in NMRI mouse assessed as weight loss at 1 to 10 mg/kg, ip qd for 2 weeks; assay type: organism-based; design: dose 1-10 mg/kg, route intraperitoneal; conditions: in vivo, 336 h
Mus musculus [23] = assay: Toxicity in NMRI mouse assessed as mortality at 1 to 10 mg/kg, ip qd for 2 weeks; assay type: organism-based; design: dose 1-10 mg/kg, route intraperitoneal; conditions: in vivo, 336 h
HCT-116 [24] = assay: Cell cycle arrest in human HCT116 cells assessed as accumulation at G1 phase at 0.6 uM after 24 hrs; assay type: functional, cell-based
Caco-2 [25] = assay: Cell cycle arrest in human Caco2 cells assessed as accumulation at G1 phase at 0.6 uM after 24 hrs; assay type: functional, cell-based
NCI-H727 [26] = assay: Cell cycle arrest in human NCI-H727 cells assessed as accumulation at G1 phase at 0.6 uM after 24 hrs; assay type: functional, cell-based
HCT-116 [27] = assay: Induction of apoptosis in human HCT116 cells assessed as activation of caspase-3 at 0.6 uM after 24 hrs; assay type: functional, cell-based
PC-3 [28] = assay: Cell cycle arrest in human PC3 cells assessed as accumulation at G1 phase at 0.6 uM after 24 hrs; assay type: functional, cell-based
Huh-7 [29] = assay: Cell cycle arrest in human HuH7 cells assessed as accumulation at G1 phase at 0.6 uM after 24 hrs; assay type: functional, cell-based
Mus musculus [30] = assay: Toxicity in NMRI mouse assessed as blood formulation at 1 to 10 mg/kg, ip qd for 2 weeks; assay type: organism-based; design: dose 1-10 mg/kg, route intraperitoneal; conditions: in vivo, 336 h
HCT-116 [31] = assay: Antitumor activity against human HCT116 cells xenografted in nude NMRI mouse assessed as tumor reduction at 10 mg/kg, ip administered 3 times in a week for 4 weeks; assay type: functional; design: scale not given: the % may be the effect or the level left; conditions: route intraperitoneal
Mus musculus [32] = assay: Toxicity in NMRI mouse assessed as food consumption at 1 to 10 mg/kg, ip qd for 2 weeks; assay type: organism-based; design: dose 1-10 mg/kg, route intraperitoneal; conditions: in vivo, 336 h
[33] = target: Cyclin-dependent kinase 1 (Homo sapiens, UniProt P06493); assay: Inhibition of CDK1
Cyclin-dependent kinase 1, sequence (P06493 whole entry): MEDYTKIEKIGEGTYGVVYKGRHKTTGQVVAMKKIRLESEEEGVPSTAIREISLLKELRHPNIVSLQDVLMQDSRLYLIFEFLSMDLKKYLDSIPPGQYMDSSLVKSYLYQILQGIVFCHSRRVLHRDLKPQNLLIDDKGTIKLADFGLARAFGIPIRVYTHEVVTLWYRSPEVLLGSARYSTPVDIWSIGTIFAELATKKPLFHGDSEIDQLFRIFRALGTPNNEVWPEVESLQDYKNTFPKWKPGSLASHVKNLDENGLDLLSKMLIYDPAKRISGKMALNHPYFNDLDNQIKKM

Cyclin-dependent kinase 5/CDK5 activator 1, sequence (Q00535 whole entry): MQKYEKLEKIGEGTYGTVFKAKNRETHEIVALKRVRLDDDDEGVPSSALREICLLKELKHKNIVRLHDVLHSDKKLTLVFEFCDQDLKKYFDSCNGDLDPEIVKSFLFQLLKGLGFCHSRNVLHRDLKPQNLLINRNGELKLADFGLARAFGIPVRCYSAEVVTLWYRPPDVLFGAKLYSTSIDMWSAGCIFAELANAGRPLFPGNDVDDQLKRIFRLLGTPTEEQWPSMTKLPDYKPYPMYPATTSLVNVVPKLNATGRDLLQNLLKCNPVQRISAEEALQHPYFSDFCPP
Cyclin-dependent kinase 5/CDK5 activator 1, sequence (Q15078 whole entry, further chain): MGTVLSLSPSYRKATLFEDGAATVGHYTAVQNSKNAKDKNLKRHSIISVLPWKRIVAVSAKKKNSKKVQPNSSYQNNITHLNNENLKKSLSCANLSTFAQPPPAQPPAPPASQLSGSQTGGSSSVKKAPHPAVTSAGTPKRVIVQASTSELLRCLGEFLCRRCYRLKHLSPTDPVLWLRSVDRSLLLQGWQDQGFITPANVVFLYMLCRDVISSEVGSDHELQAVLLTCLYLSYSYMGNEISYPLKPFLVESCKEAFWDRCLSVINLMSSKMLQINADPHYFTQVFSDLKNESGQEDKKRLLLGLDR

O=C(Nc1cc(O)c2ccccc2n1)Nc1cccc2c1C1CCCCN1C2=O (stereo not given)
IC50 [1]: 1200 nM | IC50 [2]: 5600 nM | IC50 [3]: 10000 nM

O=C(Nc1cccc2c1C1CCCCN1C2=O)NC1CCCCC1 (stereo not given)
IC50 [1]: > 10000 nM | IC50 [2]: > 10000 nM | IC50 [3]: > 10000 nM

O=C(Nc1cccc2c1C1CCCCN1C2=O)Nc1nc(Cl)c(Cl)c(Cl)c1Cl (stereo not given)
IC50 [1]: 4300 nM | IC50 [2]: > 10000 nM | IC50 [3]: 10000 nM

O=C(Nc1ncccn1)Nc1cccc2c1C1CCCCN1C2=O (stereo not given)
IC50 [1]: 750 nM

O=C(Nc1cscn1)Nc1cccc2c1C1CCCCN1C2=O (stereo not given)
IC50 [1]: 760 nM

O=C(Nc1nc2ccccc2s1)Nc1cccc2c1C1CCCCN1C2=O (stereo not given)
IC50 [1]: 3500 nM | IC50 [2]: > 10000 nM

O=C(Nc1ccc(-c2ccccc2)cn1)Nc1cccc2c1C1CCCCN1C2=O (stereo not given)
IC50 [1]: 140 nM | IC50 [2]: > 10000 nM | IC50 [3]: 4000 nM | IC50 [4]: > 10000 nM

O=C(Nc1cc(Br)ccn1)Nc1cccc2c1C1CCCCN1C2=O (stereo not given)
IC50 (HCT-116 [5]): 100 nM | IC50 (NCI-H727 [6]): 400 nM | IC50 (Caco-2 [7]): 100 nM | IC50 [8]: 500 nM | IC50 [1]: 22 nM | IC50 [2]: 7600 nM | IC50 [3]: 25 nM | IC50 (Huh-7 [9]): 5000 nM | IC50 (MDA-MB-231 [10]): 500 nM | IC50 [4]: 1300 nM | IC50 (PC-3 [11]): 100 nM

COc1cccnc1NC(=O)Nc1cccc2c1C1CCCCN1C2=O (stereo not given)
IC50 [1]: 1300 nM | IC50 [2]: 8100 nM | IC50 [3]: 590 nM | IC50 [4]: 2600 nM

O=C(Nc1cccc(Br)n1)Nc1cccc2c1C1CCCCN1C2=O (stereo not given)
IC50 (HCT-116 [5]): > 25000 nM | IC50 (NCI-H727 [6]): > 25000 nM | IC50 (Caco-2 [7]): > 25000 nM | IC50 [8]: > 25000 nM | IC50 [1]: 43 nM | IC50 (Huh-7 [9]): > 25000 nM | IC50 (MDA-MB-231 [10]): > 25000 nM | IC50 (PC-3 [11]): > 25000 nM

O=C(Nc1cnccn1)Nc1cccc2c1C1CCCCN1C2=O (stereo not given)
Activity (MDA-MB-231 [12]): Active | Activity (HCT-116 [13]): Active | Activity (NCI-H727 [14]): Active | Activity (Huh-7 [15]): Active | Activity (HCT-116 [16]): Active | Activity (Caco-2 [17]): Active | Activity (PC-3 [18]): Active

O=C(Nc1ccc(Br)cn1)Nc1cccc2c1C1CCCCN1C2=O (stereo not given)
IC50 [1]: 76 nM | IC50 [2]: > 10000 nM

O=C(Nc1ccccc1)Nc1cccc2c1C1CCCCN1C2=O (stereo not given)
IC50 [1]: > 10000 nM | IC50 [2]: > 10000 nM | IC50 [3]: > 10000 nM

O=C(Nc1cccc(F)n1)Nc1cccc2c1C1CCCCN1C2=O (stereo not given)
IC50 (HCT-116 [5]): 90 nM | IC50 (NCI-H727 [6]): 500 nM | IC50 (Caco-2 [7]): 150 nM | IC50 [8]: 400 nM | IC50 [1]: 26 nM | IC50 [3]: 90 nM | IC50 (Huh-7 [9]): 120 nM | IC50 (MDA-MB-231 [10]): 90 nM | IC50 (PC-3 [11]): 200 nM

O=C(Nc1ccc(O)cn1)Nc1cccc2c1C1CCCCN1C2=O (stereo not given)
IC50 [1]: 4000 nM | IC50 [2]: > 10000 nM | IC50 [3]: 1300 nM | IC50 [4]: ≥ 10000 nM

Cc1cc(NC(=O)Nc2cccc3c2C2CCCCN2C3=O)no1 (stereo not given)
IC50 [1]: 330 nM

Cc1nc(NC(=O)Nc2cccc3c2C2CCCCN2C3=O)cs1 (stereo not given)
IC50 [1]: 120 nM

O=C(Nc1cc(-c2ccccc2)on1)Nc1cccc2c1C1CCCCN1C2=O (stereo not given)
IC50 [1]: 270 nM

O=C(Nc1cccc2c1C1CCCCN1C2=O)Nc1ncc(F)cc1F (stereo not given)
IC50 [1]: 200 nM | IC50 [2]: > 10000 nM | IC50 [3]: 260 nM | IC50 [4]: > 10000 nM

O=C(Nc1cc2ccccc2cn1)Nc1cccc2c1C1CCCCN1C2=O (stereo not given)
IC50 (HCT-116 [5]): 1000 nM | IC50 (NCI-H727 [6]): 3000 nM | IC50 (Caco-2 [7]): 1000 nM | IC50 [8]: 4000 nM | IC50 [1]: 170 nM | IC50 [2]: > 10000 nM | IC50 [3]: 68 nM | IC50 (Huh-7 [9]): 2000 nM | IC50 (MDA-MB-231 [10]): 3000 nM | IC50 (PC-3 [11]): 2000 nM

O=C(Nc1ccc2cccc(O)c2n1)Nc1cccc2c1C1CCCCN1C2=O (stereo not given)
IC50 [1]: 150 nM | IC50 [2]: > 10000 nM | IC50 [3]: 700 nM

O=C(Nc1ccccn1)Nc1cccc2c1C1CCCCN1C2=O (stereo not given)
Activity (Mus musculus [19]): Non-toxic | Activity (MDA-MB-231 [20]): Active | Activity (HCT-116 [21]): 51% | Activity (Mus musculus [22]): Non-toxic | Activity (Mus musculus [23]): Non-toxic | Activity (HCT-116 [24]): Active | Activity (Caco-2 [25]): Active | Activity (NCI-H727 [26]): Active | Activity (HCT-116 [27]): Active | Activity (PC-3 [28]): Active | Activity (Huh-7 [29]): Active | Activity (Mus musculus [30]): Non-toxic | Activity (HCT-116 [31]): 45.3% | Activity (Mus musculus [32]): Non-toxic | IC50 [33]: 75 nM

O=C(Nc1csc(-c2ccncc2)n1)Nc1cccc2c1C1CCCCN1C2=O (stereo not given)
IC50 [1]: 130 nM

O=C(Nc1cccc(N2CCCCC2)n1)Nc1cccc2c1C1CCCCN1C2=O (stereo not given)
IC50 [1]: 360 nM | IC50 [2]: > 10000 nM | IC50 [3]: > 10000 nM | IC50 [4]: > 10000 nM

Cn1ccc(NC(=O)Nc2cccc3c2C2CCCCN2C3=O)n1 (stereo not given)
IC50 [1]: 310 nM

O=C(Nc1cccc2c1C1CCCCN1C2=O)Nc1ncccc1O (stereo not given)
IC50 (HCT-116 [5]): 1000 nM | IC50 (NCI-H727 [6]): 800 nM | IC50 (Caco-2 [7]): 6000 nM | IC50 [8]: 3000 nM | IC50 [1]: 51 nM | IC50 [2]: 1800 nM | IC50 [3]: 37 nM | IC50 (Huh-7 [9]): 500 nM | IC50 (MDA-MB-231 [10]): 2000 nM | IC50 [4]: 1500 nM | IC50 (PC-3 [11]): 400 nM

O=C(Nc1ccncn1)Nc1cccc2c1C1CCCCN1C2=O (stereo not given)
IC50 [1]: 380 nM | IC50 [2]: > 10000 nM

O=C(Nc1cc[nH]n1)Nc1cccc2c1C1CCCCN1C2=O (stereo not given)
IC50 [1]: 470 nM
